# According to patent US20090227503A1, “PARATHYROID HORMONE TREATMENT FOR ENHANCED ALLOGRAFT AND TISSUE-ENGINEERED RECONSTRUCTION OF BONE DEFECTS” (UNIVERSITY OF ROCHESTER, priority 2008, published 2009):
# Experiments:
# femoral allograft = experiment: Mouse femoral allograft, micro-CT of callus (Example 1); type: in vivo, C57B1/6 mice
# Procedure: Femoral allograft surgeries were performed on C57B1/6 mice as previously described. Briefly, a 4 mm mid-diaphyseal segment was removed by osteotomizing the femur and a processed allograft was implanted and secured in place with a stainless steel intramedullary (IM) pin. After 1 week, 8 mice were given daily subcutaneously injections of 0.4 mg/kg PTH (1-34) (Forteo, Eli Lilly and Company, Indianapolis, Ind.) while 5 mice with grafts were given the same volume of saline daily, serving as controls. Animals were sacrificed 6 weeks after surgery, the grafted femurs were carefully dissected and cleaned without disrupting the callus, and the IM pin was carefully removed. The femurs were then stored frozen at −80° C. until evaluation. Specimens were scanned at 10.5 micron isotropic resolution using a Scanco VivaCT 40 (Scanco Medical AG, Bassersdorf, Switzerland). Callus bone volume adjacent to the graft was manually segmented from all axial slices that contained grafted bone. The mineralized callus volume, callus bone mineral density (BMD) and total mineral content (BMC) were determined.
# [1] = tested on: critical 4 mm femoral defects; experiment: PLA and PLA/βTCP scaffold reconstruction of critical 4 mm femoral defects, micro-CT and torsion (Example 2); type: in vivo, mouse
# Source text: (scale bars 25 in B & C represent 200 microns. Arrow head in panel C points to βTCP particles). Titanium pins 30 were passed through the lumen of the scaffolds 15 (panel D) to be used for fixation of the scaffolds when implanted as standalone femoral graft substitutes in critical 4 mm femoral defects in our previously established mouse model (see Example 1). The grafted animals were either treated with daily (5 days/week) injections of PTH or left untreated (Controls). […] When grafts were harvested at 9 weeks and following micro-CT imaging, scaffold-grafted femurs were tested in torsion at a rate of 1°/sec. […] The scaffold-grafted femurs were tested in torsion to determine their biomechanical properties, including maximum torque (panels A&B), torsional rigidity (panels C&D), and ultimate normalized rotation or twist (panels E&F). Panels A, C, and E show the average properties for both scaffold types in control and PTH treated animals. Panels B, D, and F show the maximum torque, torsional rigidity, and ultimate twist, respectively, of specimens that developed a bridging union compared to non-union control and PTH-treated specimens. Data are presented as mean+SEM. Asterisk indicates significant differences from control (p<0.05).
# [2] = tested on: intact contralateral femurs; experiment: Micro-CT of intact contralateral femurs (Example 4); type: in vivo, mice; conditions: 6 weeks
# grafted femurs = experiment: Mouse femoral allograft, micro-CT of grafted femurs (Example 4); type: in vivo, mice
# Procedure: Four-mm long bone allografts were harvested from donor mice, and were processed and implanted into […] defects 195 in the femur of other mice and secured in place using a stainless steel intramedullary pin 190, as shown in FIG. 13. One week after surgery, daily injections of 40 μg/kg hrPTH (1-34) (Lilly, Inc., Indianapolis, Ind.) were initiated in half of the mice, while the others received injections of saline control. Weekly x-rays were taken to monitor progression (Faxitron X-Ray LLC, Wheeling, Ill.). One cohort of the study groups used 14 mice from each treatment (PTH and control) for imaging and mechanical material testing and were sacrificed 6 weeks after surgery. Each femur was harvested by disarticulating the hip and knee and removing the intramedullary stainless-steel pin. Specimens were moistened with saline and frozen at -20° C. until thawed for micro-CT imaging and torsion testing. Specimens were scanned at […] isotropic resolution using the Scanco VivaCT 40 (Scanco Medical AG, Bassersdorf, Switzerland). From these 3D images, the graft and callus bone volumes (BVGraft, BVCallus) were measured by manual segmentation, followed by standardized thresholding at a grayscale corresponding to 750 mgHA/cm^3. The cross-sectional polar moment of […]) were computed for each slice throughout the grafted region and the maximum, minimum and average […]) were investigated to determine their contribution to the biomechanics of the grafted femurs. The Union Ratio was also calculated. The Union Ratio measures the graft surface area upon which mineralized callus has formed. If the voxels adjacent to the graft surface are boney callus, the area of that region of the graft is measured and normalized to the total graft surface area. Imaging data (not shown) indicated the bare surface of the graft in blue, with regions of union to the callus depicted as red. Each half (proximal and distal) of the graft was evaluated separately and the lesser ratio of union area to total graft surface area was given as the Union Ratio for that specimen. Callus formation that bridged from host-to-host over the graft was determined by evaluating serial axial cross sections from micro-CT images and given a binary result. These samples were then mechanically tested in torsion. Yield torque (TYield), ultimate torque (TUlt), torsional rigidity (TR), toughness (or work to failure) and the twist at ultimate torque were determined for each specimen. Finally, the mode of failure for each specimen was determined using an x-ray image analysis (not shown). Bone volume quantification was performed from micro-CT imaging. Quantification of micro-CT results for a control and PTH treated (FIGS. 16E-H) specimen was performed. Cross sectional polar moment of inertia, graft were determined. Callus and intramedullary callus bone volumes were quantified for each specimen in a region of interest that extended from the proximal axial slice containing bone graft through the distal slice. These regions were manually segmented and quantified for bone volume, bone mineral density and bone mineral content at a threshold corresponding to 750 mgHA/cm^3. The total depth of penetration of callus into the intramedullary cavity from both ends was also measured. The trabecular-like region within the shell of the exterior callus was segmented for trabecular analysis to quantify BVF, Tb.No., Tb.Th., and Tb.Sp.
# [3] = 0.4 mg/kg PTH (1-34) s.c. daily from week 1, 6 weeks after surgery, Mean (Standard Deviation)
# [4] = vs saline, 6 weeks after surgery
# [5] = PTH contralateral femur, mean, N = 8
# [6] = 40 μg/kg hrPTH (1-34) daily from week 1, 6 weeks after surgery, mean, n = 14
structure (smiles),measurement,setting,value
"CC[C@H](C)[C@H](NC(=O)[C@H](CCC(=O)O)NC(=O)[C@H](CO)NC(=O)[C@@H](NC(=O)[C@@H](N)CO)C(C)C)C(=O)N[C@@H](CCC(N)=O)C(=O)N[C@@H](CC(C)C)C(=O)N[C@@H](CCSC)C(=O)N[C@@H](Cc1cnc[nH]1)C(=O)N[C@@H](CC(N)=O)C(=O)N[C@@H](CC(C)C)C(=O)NCC(=O)N[C@@H](CCCCN)C(=O)N[C@@H](Cc1cnc[nH]1)C(=O)N[C@@H](CC(C)C)C(=O)N[C@@H](CC(N)=O)C(=O)N[C@@H](CO)C(=O)N[C@@H](CCSC)C(=O)N[C@@H](CCC(=O)O)C(=O)N[C@@H](CCCN=C(N)N)C(=O)N[C@H](C(=O)N[C@@H](CCC(=O)O)C(=O)N[C@@H](Cc1c[nH]c2ccccc12)C(=O)N[C@@H](CC(C)C)C(=O)N[C@@H](CCCN=C(N)N)C(=O)N[C@@H](CCCCN)C(=O)N[C@@H](CCCCN)C(=O)N[C@@H](CC(C)C)C(=O)N[C@@H](CCC(N)=O)C(=O)N[C@@H](CC(=O)O)C(=O)N[C@H](C(=O)N[C@@H](Cc1cnc[nH]1)C(=O)N[C@@H](CC(N)=O)C(=O)N[C@@H](Cc1ccccc1)C(=O)O)C(C)C)C(C)C [PTH, PTH (1-34)]",Callus BMC,femoral allograft; [3],2.77 (0.53) mg HA
same,Callus BMD,femoral allograft; [3],665 (17) mg HA/cm^3
same,Callus Bone Volume,femoral allograft; [3],4.17 (0.80) mm^3
same,samples with callus bridging the graft from host to host,"femoral allograft; 6 weeks after surgery, saline 20%",63%
same,increase in callus bone volume,femoral allograft; [4],1.9 fold
same,net increase in total callus mineral content,femoral allograft; [4],60%
same,reduction in callus BMD,femoral allograft; [4],13%
same,animals that developed a mineralized callus bridging the defect (union),"[1]; 9 weeks post-reconstruction, both scaffolds, daily (5 days/week) PTH, none in controls",30%
same,torsion behavior of bridged grafts,"[1]; 9 weeks, torsion at 1°/sec",prototypical brittle bone torsion behavior
same,"biomechanical properties of scaffold-grafted femurs (maximum torque, torsional rigidity, ultimate twist)","[1]; 9 weeks, vs control",improved the biomechanical properties of the scaffold-grafted femurs especially in femurs with bridging unions
same,volume of the mineralized callus,"[1]; PLA and PLA/βTCP scaffolds, 6 and 9 weeks post-reconstruction, vs control",increased the volume of the mineralized callus regardless of the scaffold type
same,contralateral intact femur's diaphyseal BMCPTH:BMCSaline,[2],1.17
same,A-P Periosteal Diameter,[2]; [5],1.30 mm
same,Cortical Bone Density,[2]; [5],1179 mgHA/cc
same,Cortical Thickness,[2]; [5],0.199 mm
same,Cross-Sectional Area,[2]; [5],0.82 mm²
same,M-L Periosteal Diameter,[2]; [5],1.85 mm
same,Polar Moment of Inertia,[2]; [5],0.36 mm^4
same,BMCCallus,grafted femurs; [6],2.7 mgHA
same,BMDCallus,grafted femurs; [6],667 mgHA/cc
same,BVCallus,grafted femurs; [6],1.04 mm^3/mm
same,BVGraft,grafted femurs; [6],0.82 mm^3/mm
same,BVIntramed,grafted femurs; [6],0.2 mm^3/mm
same,Callus Tb. N.,grafted femurs; [6],13.2
same,Callus Tb. Sp.,grafted femurs; [6],0.065
same,Callus Tb. Th.,grafted femurs; [6],0.149
same,Callus trabecular BVF,grafted femurs; [6],0.576
same,Intramed Penetration Depth,grafted femurs; [6],2.22 mm
same,PMIAve,grafted femurs; [6],1.16 mm^4
same,PMIMax,grafted femurs; [6],2.17 mm^4
same,PMIMin,grafted femurs; [6],0.51 mm^4
same,Union Ratio,grafted femurs; [6],0.277
same,ratio of callus BMCPTH:BMCSaline,grafted femurs; 6 weeks,1.67
same,maximum outer radius of the callus,"grafted femurs; 6 weeks, saline 1.8±0.2 mm",1.7±0.3 mm
same,specimens with bridging over the graft from host-to-host,"grafted femurs; 6 weeks, saline 6 of 14",8 of 14
same,Union Ratio greater in PTH treated animals,"grafted femurs; across all samples, vs saline",2.8 fold
same,Intramedullary penetration depth,"grafted femurs; grafts from PTH-treated animals, saline 1.7±0.6 mm",2.2±0.7 mm
same,Union Ratio of the single PTH-treated specimen of FIG. 15H,"grafted femurs; one specimen, saline control specimen 0.02",0.31
same,"bone mineral density of the callus, less dense by","grafted femurs; vs saline, 6 weeks",14%
same,"bone volume fraction within the callus, greater by","grafted femurs; vs saline, 6 weeks",52%
same,graft bone volume (graft resorption),"grafted femurs; vs saline, 6 weeks",not different between treatment groups
same,"net callus total mineral content, greater by","grafted femurs; vs saline, 6 weeks",67%
same,increase in BVCallus,grafted femurs; [4],93%
same,increase in BVIntramed,grafted femurs; [4],217%
same,increase in PMIAve,grafted femurs; [4],38%
same,increase in PMIMax,grafted femurs; [4],26%
same,"Union Ratio, greater by","grafted femurs; vs saline, 6 weeks, p<0.01",76%
same,"Intramedullary penetration depth, greater by","grafted femurs; vs saline, p=0.12",28%
